# Laboratory results: US8084479B2, “Thiazole compounds and methods of use” (Amgen Inc., priority 2006, dated 2011)
# Molecular target: PKBα (Homo sapiens, UniProt P31749)
# Assay: PKB kinase assay (P33-labeled ATP, peptide substrate, filter plate)
# Format: biochemical
# Conditions: PKBα enzyme (full length or kinase domain with pleckstrin domain deleted)
# From the text: The kinase assay for evaluating PKB activity comprises active PKB enzymes, a PKB specific substrate, and P^33-labeled ATP. […] The phosphorylated substrate was captured by a phosphocellulose membrane filter plate (MLLIPORE) and measured by a Wallac Microbeta liquid scintillation counter (Perkin Elmer).
# Sequence of PKBα (P31749 118-480 limits assumed): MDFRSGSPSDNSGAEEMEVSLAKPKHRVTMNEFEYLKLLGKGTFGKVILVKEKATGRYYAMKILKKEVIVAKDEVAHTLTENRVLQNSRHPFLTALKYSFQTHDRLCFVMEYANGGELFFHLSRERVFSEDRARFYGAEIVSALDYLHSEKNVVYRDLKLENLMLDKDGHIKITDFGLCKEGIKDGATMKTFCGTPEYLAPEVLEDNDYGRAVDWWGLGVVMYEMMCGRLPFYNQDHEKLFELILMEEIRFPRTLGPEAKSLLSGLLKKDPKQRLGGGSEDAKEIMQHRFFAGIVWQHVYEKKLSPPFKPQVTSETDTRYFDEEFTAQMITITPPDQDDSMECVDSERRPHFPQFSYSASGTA
row,IC50,Structure (SMILES)
1,50 to 1000 nM,N[C@H](CNc1nc(C2CC2)c(-c2ccc3cnccc3c2)s1)Cc1ccc(C(F)(F)F)cc1 [Example 169]
2,1000 to 10000 nM,"N[C@H](CNc1ncc(-c2ccc3c(c2)CCC(=O)N3)s1)Cc1ccc(C(F)(F)F)cc1 [Example 36, 6-(2-((S)-2-amino-3-(4-(trifluoromethyl)phenyl)propylamino)thiazol-5-yl)-3,4-dihydroquinolin-2(1H)-one]"
3,1000 to 10000 nM,"N[C@@H](Cc1cccc(C(F)(F)F)c1)CN(Cc1ccccc1)c1ncc(-c2nc3ccncc3s2)s1 [Example 29, N—((S)-2-amino-3-(3-(trifluoromethyl)phenyl)propyl)-N-benzyl-5-(thiazolo[5,4-c]pyridin-2-yl)thiazol-2-amine]"
4,< 50 nM,"N[C@H](CNc1ncc(-c2cnc3c(c2)CC(=O)N3)s1)Cc1ccc(C(F)(F)F)cc1 [Example 226, 5-(2-((S)-2-amino-3-(4-(trifluoromethyl)phenyl)propylamino)thiazol-5-yl)-1H-pyrrolo[2,3-b]pyridin-2(3H)-one]"
5,< 50 nM,"N[C@H](CNc1ncc(-c2ccc3[nH]c(=O)oc3c2)s1)Cc1ccc(Cl)c(F)c1 [Example 84, 6-(2-((S)-2-Amino-3-(4-chloro-3-fluorophenyl)propylamino)thiazol-5-yl)benzo[d]oxazol-2(3H)-one]"
6,< 50 nM,"CNc1cc2cc(-c3cnc(NC[C@@H](N)Cc4ccc(C(F)(F)F)cc4)s3)ccc2cn1 [Example 138, 6-(2-((S)-2-amino-3-(4-(trifluoromethyl)phenyl)propylamino)thiazol-5-yl)-N-methylisoquinolin-3-amine]"
7,1000 to 10000 nM,"NC(=O)c1nc(NC[C@@H](N)Cc2ccc(C(F)(F)F)cc2)sc1-c1ccc2cnccc2c1 [Example 121, 2-((S)-2-amino-3-(4-(trifluoromethyl)phenyl)propylamino)-5-(isoquinolin-6-yl)thiazole-4-carboxamide]"
8,< 50 nM,"Cc1n[nH]c2ccc(-c3sc(NC[C@@H](N)Cc4ccc(C(F)(F)F)cc4)nc3C#CCO)cc12 [Example 149, 3-(2-((S)-2-amino-3-(4-(trifluoromethyl)phenyl)propylamino)-5-(3-methyl-1H-indazol-5-yl)thiazol-4-yl)prop-2-yn-1-ol]"
9,50 to 1000 nM,"N[C@H](CNc1nc(C(F)(F)CO)c(-c2ccc3cnccc3c2)s1)Cc1ccc(C(F)(F)F)cc1 [Example 134, 2-(2-((S)-2-Amino-3-(4-(trifluoromethyl)phenyl)-propylamino)-5-(isoquinolin-6-yl)thiazol-4-yl)-2,2-difluoroethanol]"
10,< 50 nM,"N[C@H](CNc1ncc(-c2ccc3[nH]c(=O)oc3c2)s1)Cc1ccc(C(F)(F)F)cc1 [Example 40, 6-(2-((S)-2-amino-3-(4-(trifluoromethyl)phenyl)propylamino)thiazol-5-yl)benzo[d]oxazol-2(3H)-one]"
11,< 50 nM,"N[C@H](CNc1ncc(-c2cc(F)c3c(c2)CC(=O)N3)s1)Cc1ccc(C(F)(F)F)cc1 [Example 220, 5-(2-((S)-2-amino-3-(4-(trifluoromethyl)phenyl)propylamino)thiazol-5-yl)-7-fluoroindolin-2-one]"
12,< 50 nM,"Nc1cc2cc(-c3cnc(NC[C@@H](N)Cc4ccc(Cl)cc4)s3)ccc2cn1 [Example 76, 6-(2-((S)-2-Amino-3-(4-chlorophenyl)propylamino)thiazol-5-yl)isoquinolin-3-amine]"
13,1000 to 10000 nM,"N[C@H](CNc1nc(COCC(F)(F)F)c(-c2nc3ccncc3s2)s1)Cc1cccc(Cl)c1 [Example 20, N—((S)-2-amino-3-(3-chlorophenyl)propyl)-5-(thiazolo[5,4-c]pyridin-2-yl)-4-((2,2,2-trifluoroethoxy)methyl)thiazol-2-amine]"
14,1000 to 10000 nM,"COCc1nc(N(C[C@@H](N)Cc2ccc(C(F)(F)F)cc2)C(C)=O)sc1-c1nc2ccncc2s1 [Example 26, N—((S)-2-amino-3-(4-(trifluoromethyl)phenyl)propyl)-N-(4-(methoxymethyl)-5-(thiazolo[5,4-c]pyridin-2-yl)thiazol-2-yl)acetamide]"
15,50 to 1000 nM,"N[C@H](CNc1nc(C#CC2(O)CCCC2)c(-c2ccc3cnccc3c2)s1)Cc1ccc(C(F)(F)F)cc1 [Example 148, 1-(2-(2-((S)-2-amino-3-(4-(trifluoromethyl)phenyl)propylamino)-5-(isoquinolin-6-yl)thiazol-4-yl)ethynyl)cyclopentanol]"
16,50 to 1000 nM,"N[C@H](CNc1nc(-c2cccc(F)c2)c(-c2ccc3cnccc3c2)s1)Cc1ccc(C(F)(F)F)cc1 [Example 103, N—((S)-2-amino-3-(4-(trifluoromethyl)phenyl)propyl)-4-(3-fluorophenyl)-5-(isoquinolin-6-yl)thiazol-2-amine]"
17,< 50 nM,"N[C@H](CNc1nc(CO)c(-c2ccc3[nH]c(=O)oc3c2)s1)Cc1ccc(C(F)(F)F)cc1 [Example 125, 6-(2-((S)-2-Amino-3-(4-(trifluoromethyl)phenyl)propylamino)-4-(hydroxymethyl)thiazol-5-yl)benzo[d]oxazol-2(3H)-one]"
18,1000 to 10000 nM,"C[C@@H](c1ccccc1)[C@H](N)CNc1ncc(-c2ccc3[nH]c(=O)n(C)c3c2)s1 [Example 89, 6-(2-((2S,3S)-2-Amino-3-phenylbutylamino)thiazol-5-yl)-1-methyl-1H-benzo[d]imidazol-2(3H)-one]"
19,< 50 nM,"C[C@@H](c1ccc(C(F)(F)F)nc1)[C@H](N)CNc1ncc(-c2ccc3c(c2)CC(=O)N3)s1 [Example 233, 5-(2-((2S,3S)-2-amino-3-(6-(trifluoromethyl)pyridin-3-yl)butylamino)thiazol-5-yl)indolin-2-one]"
20,1000 to 10000 nM,"N[C@H](CNc1ncc(-c2ccc3cnccc3c2)s1)Cc1ccc(NC(=O)OCc2ccccc2)cc1 [Example 223, Benzyl 4-((S)-2-amino-3-(5-(isoquinolin-6-yl)thiazol-2-ylamino)propyl)phenylcarbamate]"
21,50 to 1000 nM,"N[C@H](CNc1ncc(-c2ccc3c(c2)CC(=O)N3)s1)Cc1ccc2ccccc2c1 [Example 201, 5-(2-((S)-2-amino-3-(naphthalen-2-yl)propylamino)thiazol-5-yl)indolin-2-one]"
22,< 50 nM,"COC(=O)c1nc(NC[C@@H](N)Cc2ccc(C(F)(F)F)cc2)sc1-c1ccc2cnccc2c1 [Example 117, Methyl 2-((S)-2-amino-3-(4-(trifluoromethyl)phenyl)-propylamino)-5-(isoquinolin-6-yl)thiazole-4-carboxylate]"
23,< 50 nM,"CC#Cc1nc(NC[C@@H](N)Cc2ccc(C(F)(F)F)cc2)sc1-c1ccc2c(c1)CC(=O)N2 [Example 152, 5-(2-((S)-2-amino-3-(4-(trifluoromethyl)phenyl)propylamino)-4-(prop-1-ynyl)thiazol-5-yl)indolin-2-one]"
24,1000 to 10000 nM,"N[C@H](CNc1nc(C(F)(F)CO)c(-c2ccc3[nH]c(=O)oc3c2)s1)Cc1ccc(C(F)(F)F)cc1 [Example 135, 6-(2-((S)-2-Amino-3-(4-(trifluoromethyl)phenyl)-propylamino)-4-(1,1-difluoro-2-hydroxyethyl)thiazol-5-yl)benzo[d]oxazol-2(3H)-one]"
25,< 50 nM,"N[C@H](CNc1ncc(-c2ccc3cnccc3c2)s1)Cc1ccc(C(F)(F)F)c(O)c1 [Example 208, 5-((S)-2-amino-3-(5-(isoquinolin-6-yl)thiazol-2-ylamino)propyl)-2-(trifluoromethyl)phenol]"
